The supplement of paper PMC10307832

Key:
Assay in all cases: relative viability (nuclei count vs DMSO), 5 days (fraction); higher = more cells survive
[1] = compound: Cc1ccc(C(=O)Nc2cccc(C(F)(F)F)c2)cc1Nc1cncc(C(N)=O)c1 [ALW-II-49-7] + Nc1ncn([C@H]2C[C@H](O)[C@@H](CO)O2)c(=O)n1 [Decitabine] (partner 2 µM)
Method in brief: (§1)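 A single step with final 0.05% Triton X-100, 1% formaldehyde and 1 ug/ml Hoechst fixed the cells and stained nuclei 5 days after treatment. Lung cancer cell lines in 1536-well plates had been treated by pin tool the day after seeding with one drug alone or a fixed anchor-drug dose plus five library-drug doses (not always all listed) in √10 steps, and nuclei were counted on 4× images. Relative viability is the ratio of nuclei in treated wells to nuclei in vehicle wells, taken as the median of duplicate plates.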

[2] = compound: Cc1ccc(C(=O)Nc2cccc(C(F)(F)F)c2)cc1Nc1cncc(C(N)=O)c1 [ALW-II-49-7] + O=C(c1cc(Cc2n[nH]c(=O)c3ccccc23)ccc1F)N1CCN(C(=O)C2CC2)CC1 [Olaparib] (partner 8 µM)
Method in brief: as §1

[3] = compound: Cc1nc(Nc2ncc(C(=O)Nc3c(C)cccc3Cl)s2)cc(N2CCN(CCO)CC2)n1 [Dasatinib] + Cc1nc(NC(=O)N2CCC[C@H]2C(N)=O)sc1-c1ccnc(C(C)(C)C(F)(F)F)c1 [Alpelisib] (partner 2 µM)
Method in brief: as §1

[4] = compound: Cc1nc(Nc2ncc(C(=O)Nc3c(C)cccc3Cl)s2)cc(N2CCN(CCO)CC2)n1 [Dasatinib] + O=C(c1cc(Cc2n[nH]c(=O)c3ccccc23)ccc1F)N1CCN(C(=O)C2CC2)CC1 [Olaparib] (partner 8 µM)
Method in brief: as §1

Row | Cell Line | relative viability ([1]; first compound 0.08 µM) | relative viability ([1]; first compound 0.253 µM) | relative viability ([1]; first compound 0.8 µM) | relative viability ([1]; first compound 2.53 µM) | relative viability ([1]; first compound 8 µM) | relative viability ([2]; first compound 0.08 µM) | relative viability ([2]; first compound 0.253 µM) | relative viability ([2]; first compound 0.8 µM) | relative viability ([2]; first compound 2.53 µM) | relative viability ([2]; first compound 8 µM) | relative viability ([3]; first compound 0.005 µM) | relative viability ([3]; first compound 0.01581 µM) | relative viability ([3]; first compound 0.05 µM) | relative viability ([3]; first compound 0.1581 µM) | relative viability ([3]; first compound 0.5 µM) | relative viability ([4]; first compound 0.005 µM) | relative viability ([4]; first compound 0.01581 µM) | relative viability ([4]; first compound 0.05 µM) | relative viability ([4]; first compound 0.1581 µM) | relative viability ([4]; first compound 0.5 µM)
1 | NCI-H1755 | 0.66 | 0.726 | 0.719 | 0.756 | 0.719 | 0.888 | 0.942 | 0.913 | 0.798 | 0.627 | 0.775 | 0.602 | 0.437 | 0.275 | 0.137 | 0.806 | 0.577 | 0.68 | 0.408 | 0.279
2 | SK-MES-1 | 0.354 | 0.35 | 0.473 | 0.445 | 0.398 | 0.548 | 0.815 | 0.746 | 0.527 | 0.418 | 0.991 |  | 0.713 | 0.474 | 0.251 | 0.766 | 0.794 | 0.56 | 0.214 | 0.151
3 | NCI-H2126 | 0.604 | 0.562 | 0.545 | 0.587 | 0.592 | 0.823 | 0.882 | 0.979 | 0.891 | 0.87 | 0.761 | 0.643 | 0.65 | 0.518 | 0.339 | 0.932 | 0.84 | 0.845 | 0.681 | 0.416
4 | EPLC-272H | 0.326 | 0.381 | 0.329 | 0.373 | 0.295 | 0.609 | 0.468 | 0.506 | 0.711 | 0.64 | 1.08 | 0.913 | 1.02 | 0.777 | 0.244 | 0.793 | 0.681 | 0.697 | 0.33 | 0.208
5 | NCI-H1975 | 0.43 | 0.375 | 0.319 | 0.375 | 0.388 | 0.739 | 0.845 | 0.793 | 0.682 | 0.683 | 0.579 | 0.437 | 0.361 | 0.21 | 0.199 | 0.707 | 0.723 | 0.706 | 0.448 | 0.216
6 | NCI-H3122 | 0.42 | 0.392 | 0.585 | 0.469 | 0.42 | 0.636 | 0.657 | 0.642 | 0.705 | 0.537 | 0.835 | 0.858 | 0.87 | 0.693 | 0.718 | 0.606 | 0.543 | 0.657 | 0.574 | 0.534
7 | COR-L 105 | 0.722 | 0.71 | 0.673 | 0.58 | 0.616 | 0.646 | 0.626 | 0.781 | 0.663 | 0.578 | 0.671 | 0.486 | 0.715 | 0.452 | 0.209 | 0.517 | 0.494 | 0.617 | 0.452 | 0.336
8 | BEN | 0.693 | 0.751 | 0.776 | 0.728 | 0.656 | 1.12 | 1.11 | 1.18 | 0.548 | 0.98 | 0.857 | 0.536 | 0.611 | 0.342 | 0.365 | 0.755 | 0.641 | 0.724 | 0.549 | 0.456
